Source: US20210355106A1, “NEW AMINO-PYRIMIDONYL-PIPERIDINYL DERIVATIVES, A PROCESS FOR THEIR PREPARATION AND PHARMACEUTICAL COMPOSITIONS CONTAINING THEM” (LES LABORATOIRES SERVIER, priority 2018, published 2021)

Key:
USP7 = target: T1, USP7 (Homo sapiens, UniProt Q93009, C315A); assay: Inhibition of USP7 by Fluorescence Intensity (FLINT) readings, Ubiquitin-Rhodamine-110 substrate; assay type: biochemical; details: 0.25 nM His-His-USP7 (aa208-560), 60 minutes at 30° C. preincubation; Ki determined from IC50 according to Cer et al.
T1 construct: 0.25 nM His-His-USP7 (aa208-560, |C315A|) was incubated with compound; His-His (N)
T1 sequence (Q93009 208-560 C315A): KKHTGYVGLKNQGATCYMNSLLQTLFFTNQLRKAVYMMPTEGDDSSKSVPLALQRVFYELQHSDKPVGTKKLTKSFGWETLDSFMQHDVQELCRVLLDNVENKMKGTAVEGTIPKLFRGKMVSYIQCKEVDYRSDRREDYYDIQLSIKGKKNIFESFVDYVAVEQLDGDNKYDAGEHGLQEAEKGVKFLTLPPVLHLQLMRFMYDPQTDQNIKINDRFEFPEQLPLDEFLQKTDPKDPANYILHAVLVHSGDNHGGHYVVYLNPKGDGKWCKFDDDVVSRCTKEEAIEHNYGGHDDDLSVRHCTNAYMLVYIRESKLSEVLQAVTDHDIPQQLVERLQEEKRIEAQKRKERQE
Procedure: USP7 activity was measured using Rhodamine-110 c-terminal labelled Ubiquitin as a substrate (UbiQ Bio), Incubation with USP7 results in the release of Rhodamine-110 leading to an increase in fluorescence which can be used in the continuous measurement of USP7 activity.
The USP7 reactions were performed in a 50 μL volume, in 384 well black solid low binding plates (Corning #3575). The reaction buffer consisted of 100 mM Bicine pH 8.0, 0.01% TritonX 100, 1 mM TCEP, and 10% DMSO.
0.25 nM His-His-USP7 (aa208-560, |C315A|) was incubated with compound (final concentration 10% DMSO) for 60 minutes at 30° C. The reaction was then initiated by the addition of 50) nM Ubiquitin-Rhodamine-110 substrate or 4 μM Ubiquitin-Rhodamine-110 substrate and the plate read every 3 minutes for 21 minutes to measure the release of Rhodamine-110. Fluorescence Intensity (FLINT) readings were measured using a Biomek Neo plate reader (Ex.485 nm, Em.535 nm).
The inhibition of increasing doses of compound was expressed as a percentage reduction in kinetic rate compared to the kinetic rates established between ‘DMSO only’ and ‘total inhibition’ controls (no USP7). The inhibitory concentrations that gave a 50% reduction in kinetic rate (IC50) were determined, from 11-point dose response curves, in XL-Fit using a 4-Parameter Logistic Model 205 (Sigmoidal Dose-Response Model). The K, values were determined from the IC50 values according to Cer et al. Nucleic Acids Res. 2009, July 1; 37 (WebServer issue): W441-W445.

[1] = system: Z138 mantle cell lymphoma tumour cell lines; assay: In vitro cytotoxicity, MTT assay; assay type: cell-based; details: Homo sapiens, Z-138; Z138 cells, exposed to the test compounds for 96 hours
Procedure: The cytotoxicity studies were evaluated by MTT [3-(4,5-dimethylthiaxol-2-yl)-2,5-diphenyltetrazolium bromide|assay and carried out on Z138 mantle cell lymphoma tumour cell lines. The cells are distributed onto microplates and exposed to the test compounds for 96 hours. MTT is then added for 4 hours and converted by NAD(P)H-dependent cellular oxidoreductase enzymes in forma/an, which has a purple color. The viable cell number is proportional to the production of formazan salts and cell viability can be quantified by the absorbance of the solution at 540 nm with a spectrophotometer (Carmichael et al., Cancer Res. 1987, 47, 936-942).

Compound	Ki (USP7) [nM]	IC50 [1] [nM]
Cc1nc(Br)sc1C(=O)N1CC[C@@H](C(=O)N2CC[C@](O)(Cn3cnc(Oc4ccc(F)cc4)c(N)c3=O)C(F)(F)C2)[C@H](c2ccccc2)C1 [Example 41, 5-amino-3-(((4S)-1-[(3R,4R)-1-(2-bromo-4-methyl-1,3-thiazole-5-carbonyl)-3-phenylpiperidine-4-carbonyl]-3,3-difluoro-4-hydroxypiperidin-4-yl}methyl)-6-(4-fluorophenoxy)pyrimidin-4(3H)-one]	6.7	2.5
CCOC(=O)C(c1ccccc1)N1CC[C@@H](C(=O)N2CCC(O)(Cn3cnc(Oc4ccc(F)cc4)c(N)c3=O)CC2)[C@H](c2ccccc2)C1 (stereo partly shown) [Example 70]	63	34
Nc1c(Oc2ccc(F)cc2)ncn(C[C@@]2(O)CCN(C(=O)[C@@H]3CCN(Cc4cnccn4)C[C@H]3c3ccccc3)CC2(F)F)c1=O [Example 202, 5-amino-3-[[(4S)-3,3-difluoro-4-hydroxy-1-[(3R,4R)-3-phenyl-1-(pyrazin-2-ylmethyl)piperidine-4-carbonyl]-4-piperidyl]methyl]-6-(4-fluorophenoxy)pyrimidin-4-one]	21.8	11.7
CCOc1cccc(C(=O)N2CC[C@@H](C(=O)N3CCC(O)(Cn4cnc(Oc5ccc(F)cc5)c(N)c4=O)CC3)[C@H](c3ccccc3)C2)c1 [Example 55, 5-amino-3-({1-[(3R,4R)-1-(3-ethoxybenzoyl)-3-phenylpiperidine-4-carbonyl]-4-hydroxypiperidin-4-yl)methyl)-6-(4-fluorophenoxy)pyrimidin-4(3H)-one]	15	12
Nc1c(Oc2ccc(F)cc2)ncn(CC2(O)CCN(C(=O)[C@@H]3CCN(C(=O)Nc4ccc(F)cc4)C[C@H]3c3ccccc3)CC2)c1=O [Example 84, (3R,4R)-4-[4-[[5-amino-4-(4-fluorophenoxy)-6-oxo-pyrimidin-1-yl]methyl]-4-hydroxy-piperidine-1-carbonyl]-N-(4-fluorophenyl)-3-phenyl-piperidine-1-carboxamide]	21	18
Cc1ccc(-c2nc(C)c(C(=O)N3CC[C@@H](C(=O)N4CC[C@](O)(Cn5cnc(Oc6ccccc6)c(N)c5=O)C(F)(F)C4)[C@H](c4ccccc4)C3)s2)cn1 [Example 119]	1.53	4.3

Further lines, with some results ahead:

Ki (USP7) [nM]	Compound	IC50 [1] [nM]
40.4	COc1cc(Oc2ncn(C[C@@]3(O)CCN(C(=O)[C@@H]4CCN(Cc5ccnc(C)n5)C[C@H]4c4ccccc4)CC3(F)F)c(=O)c2N)ccc1Cl [Example 182]	9.95
58	CN(C(=O)N1CC[C@@H](C(=O)N2CCC(O)(Cn3cnc(Oc4ccc(F)cc4)c(N)c3=O)CC2)[C@H](c2ccccc2)C1)c1ccccc1 [Example 78, (3R,4R)-4-[4-[[5-amino-4-(4-fluorophenoxy)-6-oxo-pyrimidin-1-yl]methyl]-4-hydroxy-piperidine-1-carbonyl]-N-methyl-N,3-diphenyl-piperidine-1-carboxamide]	15
24	Cc1nc(Br)sc1C(=O)N1CC[C@@H](C(=O)N2CCC(O)(Cn3cnc(Oc4cccc(C(F)(F)F)c4)c(N)c3=O)CC2)[C@H](c2ccccc2)C1 [Example 100, 5-amino-3-[[1-[(3R,4R)-1-(2-bromo-4-methyl-thiazole-5-carbonyl)-3-phenyl-piperidine-4-carbonyl]-4-hydroxy-4-piperidyl]methyl]-6-[3-(trifluoromethyl)phenoxy]pyrimidin-4-one]	47.6
9.99	Nc1c(Oc2ccc(F)cc2)ncn(C[C@@]2(O)CCN(C(=O)[C@@H]3CCN(Cc4ccnc(-c5ccccc5)n4)C[C@H]3c3ccccc3)CC2(F)F)c1=O [Example 177, 5-amino-3-[[(4S)-3,3-difluoro-4-hydroxy-1-[(3R,4R)-3-phenyl-1-[(2-phenylpyrimidin-4-yl)methyl]piperidine-4-carbonyl]-4-piperidyl]methyl]-6-(4-fluorophenoxy)pyrimidin-4-one]	2.32
70.1	COc1cc(Cl)cc(Oc2ncn(C[C@@]3(O)CCN(C(=O)[C@@H]4CCN(Cc5cnc(C)cn5)C[C@H]4c4ccccc4)CC3(F)F)c(=O)c2N)c1 [Example 178]	31.8
